According to ChEMBL document CHEMBL5154839, “Discovery of a selective and covalent small-molecule inhibitor of BFL-1 protein that induces robust apoptosis in cancer cells” (Eur J Med Chem, 2022):
The source made the active and inactive calls. The rule behind the calls is not given here.

Columns and labels:
U-937 [1] = test: Induction of apoptosis in human U-937 cells assessed as early apoptotic cells at 20 uM measured after 4 hrs by Annexin PI staining based flow cytometry method (reference value: 1.95 %); format: functional
U-937 [2] = test: Induction of apoptosis in human U-937 cells assessed as phosphatidylserine level measured after 4 hrs by Annexin V staining based flow cytometry analysis; format: functional, cell-based; conditions: DDE = dose-dependent effect
Bcl-2-related protein A1 = target: T1, Bcl-2-related protein A1 (Homo sapiens, UniProt Q16548); test: Binding affinity to His-tagged recombinant BFL-1 (1 to 151 residues) (unknown origin) expressed in Escherichia coli BL21 (DE3) assessed as dissociation constant by surface plasmon resonance analysis
T1 sequence (Q16548 whole entry): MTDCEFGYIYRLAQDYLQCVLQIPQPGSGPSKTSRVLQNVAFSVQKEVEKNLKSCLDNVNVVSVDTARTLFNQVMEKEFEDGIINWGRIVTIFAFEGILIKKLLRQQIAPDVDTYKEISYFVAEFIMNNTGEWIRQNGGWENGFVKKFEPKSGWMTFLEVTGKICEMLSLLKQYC

U-937 [3] = test: Induction of apoptosis in human U-937 cells assessed as necrotic cells at 20 uM measured after 4 hrs by Annexin PI staining based flow cytometry method (reference value: 0.00 %); format: functional
[4] = target: Programmed cell death protein 1/Programmed cell death 1 ligand 1 (Homo sapiens, UniProt Q15116+Q9NZQ7); test: Inhibition of biotinylated tagged PD-1 (unknown origin)/His tagged PD-L1 (unknown origin) protein-protein interaction assessed as inhibition constant incubated for 90 mins by AlphaLISA assay; format: protein-complex assay
[5] = target: E3 ubiquitin-protein ligase Mdm2 (Homo sapiens, UniProt Q00987); test: Displacement of FAM- labeled PDI peptide from MDM2 (1 to 118 residues) (unknown origin) expressed in Escherichia coli BL21 (DE3) assessed as inhibition constant incubated for 1.5 hrs by fluorescence polarization-based competitive binding assay
Chain of E3 ubiquitin-protein ligase Mdm2 (Q00987 whole entry, the tested form may be a part): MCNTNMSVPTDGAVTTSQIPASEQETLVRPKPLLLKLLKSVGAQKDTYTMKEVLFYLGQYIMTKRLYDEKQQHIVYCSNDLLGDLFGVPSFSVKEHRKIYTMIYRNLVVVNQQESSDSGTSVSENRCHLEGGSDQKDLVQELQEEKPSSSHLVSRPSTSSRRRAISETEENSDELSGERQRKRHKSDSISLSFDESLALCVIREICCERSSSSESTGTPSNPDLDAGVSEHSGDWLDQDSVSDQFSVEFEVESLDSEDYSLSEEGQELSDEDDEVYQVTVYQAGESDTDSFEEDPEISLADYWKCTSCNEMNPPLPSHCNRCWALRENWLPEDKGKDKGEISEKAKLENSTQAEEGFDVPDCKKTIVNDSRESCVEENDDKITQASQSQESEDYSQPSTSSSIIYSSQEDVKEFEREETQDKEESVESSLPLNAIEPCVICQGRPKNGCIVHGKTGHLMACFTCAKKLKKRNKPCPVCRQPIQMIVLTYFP

Raji = test: Growth inhibition of human Raji cells incubated for 4 days by WST assay; format: functional, cell-based; conditions: 96 h
U-937 [6] = test: Induction of apoptosis in human U-937 cells assessed as decrease in MCL-1 protein expression after 24 hrs by Western blot analysis; format: functional, cell-based; conditions: DDE = dose-dependent effect
U-937 [7] = test: Induction of apoptosis in human U-937 cells assessed as late apoptotic cells at 40 uM measured after 4 hrs by Annexin PI staining based flow cytometry method (reference value: 1.62 %); format: functional
[8] = target: Apoptosis regulator Bcl-2 (Homo sapiens, UniProt P10415); test: Displacement of fluorescein tagged BIM peptide from N-terminal His tagged human BCL-2 (1 to 170 residues) expressed in Escherichia coli BL21 (DE3) assessed as inhibition constant incubated for 1.5 hrs by fluorescence polarization-based competitive binding assay
Chain of Apoptosis regulator Bcl-2 (P10415 whole entry, the tested form may be a part): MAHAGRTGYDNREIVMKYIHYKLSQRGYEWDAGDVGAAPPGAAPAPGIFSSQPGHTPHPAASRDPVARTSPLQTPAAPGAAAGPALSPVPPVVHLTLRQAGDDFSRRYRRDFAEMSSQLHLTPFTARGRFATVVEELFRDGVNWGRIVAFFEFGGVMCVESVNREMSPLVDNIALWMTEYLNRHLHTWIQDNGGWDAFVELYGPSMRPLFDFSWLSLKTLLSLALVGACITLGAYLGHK

[9] = target: BCL2A11/BBC3 (Homo sapiens) (UniProt Q16548+Q9BXH1); test: Inhibition of human BFL-1/PUMA protein-protein interaction in human Kasumi 1 cells assessed as decrease in PUMA protein level at 80 uM measured after 5 hrs by co-immunoprecipitation assay; format: cell-based
Chain of BCL2A11/BBC3 (Homo sapiens) (Q9BXH1 whole entry, looked up, one chain of several, the tested form may be a part): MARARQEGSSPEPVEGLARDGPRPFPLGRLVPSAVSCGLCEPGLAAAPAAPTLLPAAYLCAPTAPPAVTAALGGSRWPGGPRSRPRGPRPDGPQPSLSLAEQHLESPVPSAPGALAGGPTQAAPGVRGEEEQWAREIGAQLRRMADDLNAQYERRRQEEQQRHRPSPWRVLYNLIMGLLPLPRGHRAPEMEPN

[10] = Displacement of fluorescein tagged BID BH3 peptide from His-tagged recombinant BFL-1 (1 to 151 residues) C55A mutant (unknown origin) expressed in Escherichia coli BL21 (DE3) assessed as inhibition constant incubated for 24 hrs by fluorescence polarization-based competitive binding assay; design: species or system Homo sapiens
K562 = test: Growth inhibition of human K562 cells incubated for 4 days by WST assay; format: functional, cell-based; conditions: K562, 96 h
RPMI-8226 = test: Growth inhibition of human RPMI-8226 cells incubated for 4 days by WST assay; format: functional, cell-based; conditions: RPMI-8226, 96 h
U-937 [11] = test: Induction of apoptosis in human U-937 cells assessed as caspase-3 cleavage measured after 24 hrs by Western blot analysis; format: functional, cell-based; conditions: DDE = dose-dependent effect
Kasumi 1 [12] = test: Upregulation of BFL-1 protein expression in human Kasumi 1 cells by Western blotting analysis; format: functional, cell-based
U-937 [13] = test: Induction of apoptosis in human U-937 cells assessed as early apoptotic cells at 60 uM measured after 4 hrs by Annexin PI staining based flow cytometry method (reference value: 1.95 %); format: functional
Kasumi 1 [14] = test: Induction of apoptosis in human Kasumi 1 cells overexpressing BFL-1 assessed as increase in cytochrome c level at 5 to 40 uM incubated for 3 hrs by immunoblotting analysis; format: functional, cell-based; conditions: dose 5-40 µM
U-937 [15] = test: Induction of apoptosis in human U-937 cells assessed as late apoptotic cells at 20 uM measured after 4 hrs by Annexin PI staining based flow cytometry method (reference value: 1.62 %); format: functional
U-937 [16] = test: Growth inhibition of human U-937 cells incubated for 4 days by WST assay; format: functional, cell-based; conditions: U-937, 96 h
[17] = target: Induced myeloid leukemia cell differentiation protein Mcl-1 (Homo sapiens, UniProt Q07820); test: Displacement of fluorescein tagged BID BH3 peptide from human MCL-1 (172 to 327 residues) expressed in Escherichia coli BL21 (DE3) assessed as inhibition constant incubated for 1.5 hrs by fluorescence polarization-based competitive binding assay
Chain of Induced myeloid leukemia cell differentiation protein Mcl-1 (Q07820 whole entry, the tested form may be a part): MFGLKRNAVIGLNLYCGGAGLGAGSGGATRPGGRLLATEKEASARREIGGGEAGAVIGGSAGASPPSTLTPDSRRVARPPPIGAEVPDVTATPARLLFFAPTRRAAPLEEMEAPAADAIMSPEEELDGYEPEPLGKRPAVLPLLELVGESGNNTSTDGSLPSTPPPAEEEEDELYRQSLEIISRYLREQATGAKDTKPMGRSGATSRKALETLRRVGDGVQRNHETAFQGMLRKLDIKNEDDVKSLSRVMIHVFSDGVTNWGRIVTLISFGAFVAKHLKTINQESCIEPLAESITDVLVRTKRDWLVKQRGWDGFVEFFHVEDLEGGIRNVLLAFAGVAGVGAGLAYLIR

MV4-11 = test: Upregulation of BFL-1protein expression in human MV4-11 cells by Western blotting analysis; format: functional, cell-based
[18] = target: Bromodomain-containing protein 2 (Homo sapiens, UniProt P25440); test: Binding affinity to recombinant human BRD2 BD1 (72-205 residues) assessed as inhibition constant by fluorescence polarization assay
Chain of Bromodomain-containing protein 2 (P25440 whole entry, the tested form may be a part): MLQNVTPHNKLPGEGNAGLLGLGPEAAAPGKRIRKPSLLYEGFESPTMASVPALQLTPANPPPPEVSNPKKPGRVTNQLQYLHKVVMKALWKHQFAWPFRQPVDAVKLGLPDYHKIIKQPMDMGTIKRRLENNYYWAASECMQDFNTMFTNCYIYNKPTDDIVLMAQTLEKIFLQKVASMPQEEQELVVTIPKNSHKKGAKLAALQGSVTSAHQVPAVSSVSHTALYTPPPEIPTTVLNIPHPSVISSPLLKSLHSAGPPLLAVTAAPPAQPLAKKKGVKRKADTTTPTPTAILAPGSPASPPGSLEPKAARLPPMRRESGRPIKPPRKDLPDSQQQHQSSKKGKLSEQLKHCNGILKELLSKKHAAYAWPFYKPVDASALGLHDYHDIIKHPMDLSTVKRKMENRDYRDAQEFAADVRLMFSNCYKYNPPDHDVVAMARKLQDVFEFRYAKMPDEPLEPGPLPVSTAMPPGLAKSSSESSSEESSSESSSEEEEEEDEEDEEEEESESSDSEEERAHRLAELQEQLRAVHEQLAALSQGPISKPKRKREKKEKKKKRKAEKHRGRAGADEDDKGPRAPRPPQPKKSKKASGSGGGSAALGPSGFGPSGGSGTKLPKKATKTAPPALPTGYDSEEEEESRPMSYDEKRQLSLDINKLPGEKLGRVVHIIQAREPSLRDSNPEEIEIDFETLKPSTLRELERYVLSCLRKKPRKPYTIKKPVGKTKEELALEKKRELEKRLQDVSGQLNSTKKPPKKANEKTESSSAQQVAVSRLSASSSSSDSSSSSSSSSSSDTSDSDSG

[19] = target: Transcriptional enhancer factor TEF-3 (Homo sapiens, UniProt Q15561); test: Displacement of FAM- labeled YAP1 peptide from TEAD4 (217 to 434 residues) (unknown origin) expressed in Escherichia coli BL21 (DE3) assessed as inhibition constant incubated for 1.5 hrs by fluorescence polarization-based competitive binding assay
Chain of Transcriptional enhancer factor TEF-3 (Q15561 whole entry, the tested form may be a part): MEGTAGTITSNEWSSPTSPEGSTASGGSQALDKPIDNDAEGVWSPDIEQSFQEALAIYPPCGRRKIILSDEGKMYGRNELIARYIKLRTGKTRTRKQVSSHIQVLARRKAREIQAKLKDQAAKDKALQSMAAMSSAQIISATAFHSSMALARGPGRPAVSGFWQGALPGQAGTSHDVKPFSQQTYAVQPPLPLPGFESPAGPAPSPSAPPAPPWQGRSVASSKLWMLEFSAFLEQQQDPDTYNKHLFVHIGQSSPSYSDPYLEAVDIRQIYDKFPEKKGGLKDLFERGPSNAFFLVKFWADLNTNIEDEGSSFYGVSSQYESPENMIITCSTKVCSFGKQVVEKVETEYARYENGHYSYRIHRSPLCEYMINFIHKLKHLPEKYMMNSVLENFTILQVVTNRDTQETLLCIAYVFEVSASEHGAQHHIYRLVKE

[20] = target: beta-catenin-B-cell lymphoma 9 protein complex (Homo sapiens, UniProt P35222); test: Inhibition of N-terminal biotinylated human BCL9 (350 to 375 residues)/C-terminal 6-His-tagged beta-catenin (1 to 781 residues) (unknown origin) expressed in Escherichia coli BL21 (DE3) protein-protein interaction assessed as inhibition constant incubated for 1 hr by Alphascreen assay
Chain of beta-catenin-B-cell lymphoma 9 protein complex (P35222 whole entry, the tested form may be a part): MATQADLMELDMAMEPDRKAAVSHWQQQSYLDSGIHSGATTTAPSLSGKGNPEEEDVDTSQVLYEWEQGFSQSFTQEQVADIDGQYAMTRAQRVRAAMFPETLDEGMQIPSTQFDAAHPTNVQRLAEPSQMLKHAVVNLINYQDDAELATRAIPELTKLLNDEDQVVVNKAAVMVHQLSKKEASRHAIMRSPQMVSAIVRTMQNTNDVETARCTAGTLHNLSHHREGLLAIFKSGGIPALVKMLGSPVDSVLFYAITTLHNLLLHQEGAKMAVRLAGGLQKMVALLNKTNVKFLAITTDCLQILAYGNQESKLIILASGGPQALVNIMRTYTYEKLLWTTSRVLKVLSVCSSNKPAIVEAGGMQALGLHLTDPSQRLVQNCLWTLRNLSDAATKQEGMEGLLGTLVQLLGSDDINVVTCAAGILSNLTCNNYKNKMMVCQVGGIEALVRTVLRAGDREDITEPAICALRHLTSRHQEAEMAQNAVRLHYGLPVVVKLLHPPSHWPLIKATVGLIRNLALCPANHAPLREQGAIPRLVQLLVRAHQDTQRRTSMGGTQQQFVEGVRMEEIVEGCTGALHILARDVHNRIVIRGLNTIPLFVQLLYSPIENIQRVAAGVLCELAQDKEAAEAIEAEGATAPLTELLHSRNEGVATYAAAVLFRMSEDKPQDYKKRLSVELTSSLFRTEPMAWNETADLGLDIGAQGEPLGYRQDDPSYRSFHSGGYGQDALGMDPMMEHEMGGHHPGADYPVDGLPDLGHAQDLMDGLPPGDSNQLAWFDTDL
Chain of beta-catenin-B-cell lymphoma 9 protein complex (O00512 whole entry, further chain, the tested form may be a part): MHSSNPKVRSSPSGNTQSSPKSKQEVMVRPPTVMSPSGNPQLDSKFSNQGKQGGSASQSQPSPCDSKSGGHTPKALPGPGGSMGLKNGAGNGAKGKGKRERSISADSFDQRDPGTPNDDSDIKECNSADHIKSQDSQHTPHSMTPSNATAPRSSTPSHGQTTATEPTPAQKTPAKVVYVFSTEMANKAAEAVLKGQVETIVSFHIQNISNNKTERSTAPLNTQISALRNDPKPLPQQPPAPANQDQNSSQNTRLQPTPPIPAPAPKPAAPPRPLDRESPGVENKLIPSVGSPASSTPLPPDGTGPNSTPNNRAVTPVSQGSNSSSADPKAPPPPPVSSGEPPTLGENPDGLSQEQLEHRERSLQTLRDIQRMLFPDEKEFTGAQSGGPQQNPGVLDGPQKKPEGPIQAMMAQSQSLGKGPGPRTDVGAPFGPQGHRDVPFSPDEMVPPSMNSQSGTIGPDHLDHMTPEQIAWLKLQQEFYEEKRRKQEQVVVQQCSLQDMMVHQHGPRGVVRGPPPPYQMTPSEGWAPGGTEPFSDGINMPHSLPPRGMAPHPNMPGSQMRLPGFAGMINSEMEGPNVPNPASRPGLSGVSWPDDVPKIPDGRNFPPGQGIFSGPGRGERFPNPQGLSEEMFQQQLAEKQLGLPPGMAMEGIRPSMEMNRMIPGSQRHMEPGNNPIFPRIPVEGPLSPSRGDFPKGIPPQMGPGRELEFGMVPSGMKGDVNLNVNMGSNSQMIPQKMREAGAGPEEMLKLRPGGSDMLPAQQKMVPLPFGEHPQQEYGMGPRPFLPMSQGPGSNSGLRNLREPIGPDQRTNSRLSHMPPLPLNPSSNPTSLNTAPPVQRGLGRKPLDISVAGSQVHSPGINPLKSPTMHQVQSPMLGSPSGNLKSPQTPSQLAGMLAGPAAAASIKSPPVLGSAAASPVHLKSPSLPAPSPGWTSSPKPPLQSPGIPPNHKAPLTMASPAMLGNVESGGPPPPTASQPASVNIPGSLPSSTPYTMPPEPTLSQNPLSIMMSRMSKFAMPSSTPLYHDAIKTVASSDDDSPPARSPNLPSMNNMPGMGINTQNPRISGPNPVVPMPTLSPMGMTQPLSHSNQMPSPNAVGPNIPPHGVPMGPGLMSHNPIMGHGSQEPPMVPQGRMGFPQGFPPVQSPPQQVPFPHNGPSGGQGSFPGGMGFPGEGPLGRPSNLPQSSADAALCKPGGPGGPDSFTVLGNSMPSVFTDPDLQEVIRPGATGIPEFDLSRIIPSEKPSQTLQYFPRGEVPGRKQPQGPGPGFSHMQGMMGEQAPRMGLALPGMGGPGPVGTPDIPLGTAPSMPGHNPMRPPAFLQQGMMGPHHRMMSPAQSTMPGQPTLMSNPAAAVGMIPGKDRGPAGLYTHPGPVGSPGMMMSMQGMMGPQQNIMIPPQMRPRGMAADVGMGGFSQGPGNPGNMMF

HL-60 = test: Growth inhibition of human HL-60 cells incubated for 4 days by WST assay; format: functional, cell-based; conditions: HL-60, 96 h
Bcl-2-like protein 1 = Bcl-2-like protein 1 (Homo sapiens, UniProt Q07817); test: Displacement of fluorescein tagged BAK peptide from N-terminal His tagged human BCL-xL (1 to 209 residues) expressed in Escherichia coli BL21 (DE3) assessed as inhibition constant incubated for 1.5 hrs by fluorescence polarization-based competitive binding assay
Chain of Bcl-2-like protein 1 (Q07817 whole entry, the tested form may be a part): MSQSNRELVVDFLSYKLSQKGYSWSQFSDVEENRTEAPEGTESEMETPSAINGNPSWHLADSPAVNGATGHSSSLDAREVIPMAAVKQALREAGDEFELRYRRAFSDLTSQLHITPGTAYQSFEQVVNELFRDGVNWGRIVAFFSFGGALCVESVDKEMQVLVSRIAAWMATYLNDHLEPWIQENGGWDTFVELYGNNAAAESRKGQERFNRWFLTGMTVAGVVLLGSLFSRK

U-937 [21] = test: Induction of apoptosis in human U-937 cells assessed as necrotic cells at 40 uM measured after 4 hrs by Annexin PI staining based flow cytometry method (reference value: 0.00 %); format: functional
[22] = Displacement of FAM- labeled PDI peptide from MDM4 C17S mutant (14 to 111 residues) (unknown origin) expressed in Escherichia coli BL21 (DE3) assessed as inhibition constant incubated for 1.5 hrs by fluorescence polarization-based competitive binding assay; design: species or system Homo sapiens
MM1.S = test: Growth inhibition of human MM1.S cells incubated for 4 days by WST assay; format: functional, cell-based; conditions: 96 h

- Kd (Bcl-2-related protein A1): 262 nM
- Ki [5]: > 400 µM
- IC50 (Raji): 26.9 µM
- Ki [8]: > 400 µM
- inhibition [9]: Active
- IC50 (K562): 7.7 µM
- IC50 (RPMI-8226): 8.7 µM
- IC50 (U-937 [16]): 2800 nM
- Ki [17]: 111 µM
- Ki [18]: > 400 µM
- Ki [19]: > 400 µM
- Ki [20]: > 400 µM
- IC50 (HL-60): 10.7 µM
- Ki (Bcl-2-like protein 1): > 400 µM
- IC50 (MM1.S): 6.8 µM
SMILES: C=CC(=O)N1CCN(c2c3ccc(-c4cccc(F)c4)cc3nn2Cc2ccccc2)CC1
- Activity (U-937 [1]): 8.02%
- Activity (U-937 [2]): Dde
- Activity (U-937 [3]): 1.02%
- Ki [4]: > 400 µM
- Activity (U-937 [6]): Dde
- Activity (U-937 [7]): 20.83%
- Ki [10]: 8.68 µM
- Activity (U-937 [11]): Dde
- Activity (Kasumi 1 [12]): Active
- Activity (U-937 [13]): 4.61%
- Activity (Kasumi 1 [14]): Active
- Activity (U-937 [15]): 4.05%
- Activity (MV4-11): Active
- Activity (U-937 [21]): 7.22%
- Ki [22]: > 400 µM
